# Where two headings read alike, the source gives them in different places.
# Columns and labels:
# HBV = assay: Anti-viral assay in HepG2.2.15 cells: anti-HBV activity, HBV DNA in culture medium by qPCR; assay type: cell-based; conditions: HepG2.2.15 cells, 6 days treatment, HBV DNA by qPCR, read-out: EC50
# Procedure: (§1) HepG2.2.15 (the HepG2.2.15 cell line can be produced by transfection of the HepG2 cell line as described in Sells, Chen, and Acs 1987 (Proc. Natl. Acad. Sci. USA 84: 1005-1009), and the HepG2 cell line is available from ATCC® under number HB-8065™)
# (§2) HepG2.2.15 cells were plated into 96-well plate in 2% FBS culture medium at the density of 40,000 cells/well and 5,000cells/well for HBV inhibitory activity and cytotoxicity determination, respectively. After incubation at 37° C., 5% CO2 overnight, cells were treated with medium containing compounds for 6 days with medium and compounds refreshed after 3 days of treatment. Each compound was tested in a 1:3 serial dilutions at 8 different concentrations in triplicate. The highest concentration of the compounds was 10 uM or 1 uM for anti-HBV activity assay and 100 uM for cytotoxicity determination.
# The change of HBV DNA level induced by the compounds was assessed by quantitative real-time polymerase chain reaction (qPCR). Briefly, the HBV DNA in the culture medium was extracted using QIAamp 96 DNA Blood Kit according to the manual and then quantified by real-time PCR assay using the primers and probe in the table 1 below.
# (§3) EC50 and CC50 values are calculated by the […] PRISM software.
# [1] = Cytotoxicity determination in HepG2.2.15 cells (CCK-8 assay); assay type: cell-based; conditions: human, 6 days treatment, CCK-8, highest concentration 100 uM
# Procedure: as §1, §2
# Cell viability was determined by CCK-8 assay. After 6 days of compounds treatment, 20 μl CCK-8 reagents were added to each well of cytotoxicity assay plates. Cell plates were incubated at 37° C., 5% CO2 for 2.5 h. The absorbance at 450 nm wavelength and the absorbance at 630 nm wavelength as reference was measured.
# as §3
# [2] = Hepatitis B virus, HepG2.2.15, 144 h
SMILES,EC50 (HBV; [2]),CC50 at 6 days [1],EC50 (HBV)
"CCOC(=O)C1=C(CN2CCN3C(=S)N(CC(C)(C)C(=O)O)CC3C2)NC(c2nccs2)=NC1c1ccc(F)c(F)c1Cl (centres unmarked) [Compound 14, 3-(7-((6-(2-Chloro-3,4-difluorophenyl)-5-(ethoxycarbonyl)-2-(thiazol-2-yl)-3,6-dihydropyrimidin-4-yl)methyl)-3-thioxohexahydroimidazo[1,5-a]pyrazin-2(3H)-yl)-2,2-dimethylpropanoic acid]",5.9 nM,10600 nM,–
"CCOC(=O)C1=C(CN2CCN3C(=S)N(CC4(C(=O)O)CC4)CC3C2)NC(c2nccs2)=N[C@H]1c1cccc(F)c1C (single isomer, unassigned) [Compound 9A]",–,14900 nM,64 nM
"CCOC(=O)C1=C(CN2CCN3C(=CC#N)N(CC(C)(C)C(=O)O)CC3C2)NC(c2nccs2)=N[C@H]1c1cccc(F)c1C (stereo partly drawn) [Compound 7, 3-(3-(Cyanomethylene)-7-(((S)-5-(ethoxycarbonyl)-6-(3-fluoro-2-methylphenyl)-2-(thiazol-2-yl)-3,6-dihydropyrimidin-4-yl)methyl)hexahydroimidazo[1,5-a]pyrazin-2(3H)-yl)-2,2-dimethylpropanoic acid]",720 nM,68700 nM,–
"CCOC(=O)C1=C(CN2CCN3C(=S)N(CC(C)(C)C(=O)O)C[C@@H]3C2)NC(c2nccs2)=N[C@H]1c1ccc(F)cc1Cl (single isomer, unassigned) [Compound 21A, 3-(7-((6-(2-chloro-4-fluorophenyl)-5-(ethoxycarbonyl)-2-(thiazol-2-yl)-3,6-dihydropyrimidin-4-yl)methyl)-3-thioxohexahydroimidazo[1,5-a]pyrazin-2(3H)-yl)-2,2-dimethylpropanoic acid]",6 nM,15200 nM,–
"CCOC(=O)C1=C(CN2CCN3C(=S)N(CC4(C(=O)O)CC4)C[C@@H]3C2)NC(c2nccs2)=N[C@H]1c1cccc(F)c1Cl (single isomer, unassigned) [Compound 18B, 1-((7-((6-(2-chloro-3-fluorophenyl)-5-(ethoxycarbonyl)-2-(thiazol-2-yl)-3,6-dihydropyrimidin-4-yl)methyl)-3-thioxohexahydroimidazo[1,5-a]pyrazin-2(3H)-yl)methyl)cyclopropane-1-carboxylic acid]",1.5 nM,13000 nM,–
"CCOC(=O)C1=C(CN2CCN3C(=S)N(CC(C)(C)C(=O)O)C[C@@H]3C2)NC(c2ncoc2C)=N[C@H]1c1ccc(F)cc1Cl (single isomer, unassigned) [Compound 33A, 3-(7-((6-(2-Chloro-4-fluorophenyl)-5-(ethoxycarbonyl)-2-(5-methyloxazol-4-yl)-3,6-dihydropyrimidin-4-yl)methyl)-3-thioxohexahydroimidazo[1,5-a]pyrazin-2(3H)-yl)-2,2-dimethylpropanoic acid]",12 nM,37800 nM,–
"CCOC(=O)C1=C(CN2CCN3C(=S)N(CC(C)(C)C(=O)O)C[C@@H]3C2)NC(c2ncc(F)cc2F)=N[C@H]1c1cccc(F)c1C (single isomer, unassigned) [Compound 22A, 3-(7-((2-(3,5-difluoropyridin-2-yl)-5-(ethoxycarbonyl)-6-(3-fluoro-2-methylphenyl)-3,6-dihydropyrimidin-4-yl)methyl)-3-thioxohexahydroimidazo-[1,5-a]pyrazin-2(3H)-yl)-2,2-dimethylpropanoic acid]",8.9 nM,12800 nM,–
"CCOC(=O)C1=C(CN2CCN3C(=S)N(CC(C)(C)C(=O)O)CC3C2)NC(c2ncoc2C)=NC1c1cccc(F)c1C (single isomer, unassigned) [Compound 26A, 3-(7-((5-(Ethoxycarbonyl)-6-(3-fluoro-2-methylphenyl)-2-(5-methyloxazol-4-yl)-3,6-dihydropyrimidin-4-yl)methyl)-3-thioxohexahydroimidazo[1,5-a]pyrazin-2(3H)-yl)-2,2-dimethylpropanoic acid]",13.2 nM,26200 nM,–
"CCOC(=O)C1=C(CN2CCN3C(=S)N(CC(C)(C)C(=O)O)C[C@@H]3C2)NC(c2nccs2)=N[C@H]1c1ccc(C)cc1F (single isomer, unassigned) [Compound 25A, 3-(7-((5-(Ethoxycarbonyl)-6-(2-fluoro-4-methylphenyl)-2-(thiazol-2-yl)-3,6-dihydropyrimidin-4-yl)methyl)-3-thioxohexahydroimidazo[1,5-a]pyrazin-2(3H)-yl)-2,2-dimethylpropanoic acid]",91.6 nM,31000 nM,–
"CCOC(=O)C1=C(CN2CCN3C(=S)N(CC4(C(=O)O)CC4)CC3C2)NC(c2nccs2)=NC1c1cccc(F)c1Cl (centres unmarked) [Compound 5, 1-((7-((6-(2-Chloro-3-fluorophenyl)-5-(ethoxycarbonyl)-2-(thiazol-2-yl)-3,6-dihydropyrimidin-4-yl)methyl)-3-thioxohexahydroimidazo[1,5-a]pyrazin-2(3H)-yl)methyl)cyclopropanecarboxylic acid]",1.7 nM,11800 nM,–
"CCOC(=O)C1=C(CN2CCN3C(=S)N(C[C@@H](C)C(=O)O)C[C@@H]3C2)NC(c2ncoc2C)=NC1c1cccc(F)c1C (single isomer, unassigned) [Compound 32A, 3-(7-((5-(Ethoxycarbonyl)-6-(3-fluoro-2-methylphenyl)-2-(5-methyloxazol-4-yl)-3,6-dihydropyrimidin-4-yl)methyl)-3-thioxohexahydroimidazo[1,5-a]pyrazin-2(3H)-yl)-2-methylpropanoic acid]",24.9 nM,41000 nM,–
"CCOC(=O)C1=C(CN2CCN3C(=S)N(CC(C)(C)C(=O)O)C[C@@H]3C2)NC(c2nccs2)=N[C@@H]1c1ccc(F)c(F)c1C (single isomer, unassigned) [Compound 15A, 3-(7-((6-(3,4-Difluoro-2-methylphenyl)-5-(ethoxycarbonyl)-2-(thiazol-2-yl)-3,6-dihydropyrimidin-4-yl)methyl)-3-thioxohexahydroimidazo[1,5-a]pyrazin-2(3H)-yl)-2,2-dimethylpropanoic acid]",4.6 nM,25600 nM,–
"CCOC(=O)C1=C(CN2CCN3C(=S)N(CC(C)(C)C(=O)O)C[C@@H]3C2)NC(c2nccs2)=N[C@H]1c1ccc(F)c(F)c1C (single isomer, unassigned) [Compound 15B, 3-(7-((6-(3,4-Difluoro-2-methylphenyl)-5-(ethoxycarbonyl)-2-(thiazol-2-yl)-3,6-dihydropyrimidin-4-yl)methyl)-3-thioxohexahydroimidazo[1,5-a]pyrazin-2(3H)-yl)-2,2-dimethylpropanoic acid]",300 nM,45000 nM,–
"COC(=O)C1=C(CN2CCN3C(=S)N(CC(C)(C)C(=O)O)C[C@@H]3C2)NC(c2nccs2)=N[C@H]1c1ccc(F)cc1Br (single isomer, unassigned) [Compound 16B, 3-(7-((6-(2-Bromo-4-fluorophenyl)-5-(methoxycarbonyl)-2-(thiazol-2-yl)-3,6-dihydropyrimidin-4-yl)methyl)-3-thioxohexahydroimidazo[1,5-a]pyrazin-2(3H)-yl)-2,2-dimethylpropanoic acid]",808 nM,29500 nM,–
"CCOC(=O)C1=C(CN2CCN3C(=S)N(CC4(C(=O)O)CCC4)CC3C2)NC(c2nccs2)=N[C@H]1c1cccc(F)c1C (single isomer, unassigned) [Compound 29B]",1.5 nM,11200 nM,–
"CCOC(=O)C1=C(CN2CCN3C(=S)N(CC(C)(C)C(=O)O)C[C@@H]3C2)NC(c2nccs2)=N[C@@H]1c1ccc(F)nc1C (single isomer, unassigned) [Compound 37, 3-(7-((5-(ethoxycarbonyl)-6-(6-fluoro-2-methylpyridin-3-yl)-2-(thiazol-2-yl)-3,6-dihydropyrimidin-4-yl)methyl)-3-thioxohexahydroimidazo[1,5-a]pyrazin-2(3H)-yl)-2,2-dimethylpropanoic acid]",100 nM,≥ 100000 nM,–
"CCOC(=O)C1=C(CN2CCN3C(=S)N([C@@H]4CC[C@H](C(=O)O)C4)CC3C2)NC(c2nccs2)=N[C@H]1c1cccc(F)c1C (single isomer, unassigned) [Compound 24A]",–,15500 nM,39.1 nM
"COC(=O)C1=C(CN2CCN3C(=S)N(CC(C)(C)C(=O)O)CC3C2)NC(c2nccs2)=NC1c1ccc(F)c(F)c1Cl (single isomer, unassigned) [Compound 11A, 3-(7-((6-(2-Chloro-3,4-difluorophenyl)-5-(methoxycarbonyl)-2-(thiazol-2-yl)-3,6-dihydropyrimidin-4-yl)methyl)-3-thioxohexahydroimidazo[1,5-a]pyrazin-2(3H)-yl)-2,2-dimethylpropanoic acid]",1.9 nM,16200 nM,–
"CCOC(=O)C1=C(CN2CCN3C(=S)N(C)C[C@@H]3[C@H]2C(=O)O)NC(c2nccs2)=N[C@H]1c1cccc(F)c1C (single isomer, unassigned) [Compound 35A]",–,77000 nM,47.9 nM
